Measurements: publication PMC9103244, “Novel Hybrid 1,2,4- and 1,2,3-Triazoles Targeting Mycobacterium Tuberculosis Enoyl Acyl Carrier Protein Reductase (InhA): Design, Synthesis, and Molecular Docking” (International Journal of Molecular Sciences, 2022)
pIC50: −log10 of the molar value. Read-outs that look alike come from different tables or passages of the source.

Legend:
M. tuberculosis InhA = target: T1, M. tuberculosis InhA (Mycobacterium tuberculosis, UniProt P9WGR1); experiment: InhA enzymatic inhibition assay (NADH oxidation at 340 nm); assay type: biochemical; settings: for inhibition at 0.01 µM: compound at 10 nM, read-out: InhA enzyme inhibition percentage at 10 nM
T1 construct: made in house; host or cells: E. coli
T1 sequence (P9WGR1 whole entry, looked up): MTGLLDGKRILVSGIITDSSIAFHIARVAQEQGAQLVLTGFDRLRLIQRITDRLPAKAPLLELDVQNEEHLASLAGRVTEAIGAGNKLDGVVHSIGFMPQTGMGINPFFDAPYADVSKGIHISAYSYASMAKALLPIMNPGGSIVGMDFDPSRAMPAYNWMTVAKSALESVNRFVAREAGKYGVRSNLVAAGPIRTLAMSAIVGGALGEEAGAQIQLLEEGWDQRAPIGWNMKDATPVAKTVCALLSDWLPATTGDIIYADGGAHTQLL

[1] = target: mycobacterium tuberculosis InhA enzyme; parameters: method as in doi:10.1016/j.molstruc.2020.129148; settings: literature lead structures; read-out: IC50 (InhA inhibitors, lead structures); cited from earlier work
[2] = 70 nM InhA, 2 h pre-incubation, pH 6.8, 25 °C, 35 μM trans-2-decenoyl-CoA, 200 μM NADH, read-out: IC50, inhibitory effect against InhA

CC(=O)c1ccc(-n2cc(CSc3nnc(Cc4ccccc4)n3/N=C/c3ccc(N4CCOCC4)cc3)nn2)cc1 [7f]
pIC50 (M. tuberculosis InhA; [2]): 9.60 | inhibition at 0.01 µM (M. tuberculosis InhA): 100% | melting point: 198 to 200 °C

CC(=O)c1ccc(-n2cc(CSc3nnc(Cc4ccccc4)n3/N=C/c3cccs3)nn2)cc1 [7b]
pIC50 (M. tuberculosis InhA): 7.90 | melting point: 196 °C

S=c1[nH]nc(Cc2ccccc2)n1/N=C/c1ccc(N2CCOCC2)cc1 [4c, (E)-5-benzyl-4-((4-morpholinobenzylidene)amino)-2,4-dihydro-3H-1,2,4-triazole-3-thione]
pIC50 (M. tuberculosis InhA; [2]): 8.09

CNC(=O)CN(Cc1ccc(F)cc1)C(=O)C[C@H]1CC[C@@H](NC(=O)c2nnn(Cc3ccccc3)c2C)CC1 [Lead structure B]
pIC50 [1]: 7.24

O=C(O)c1ccc(-n2cc(CSc3nnc(Cc4ccccc4)n3/N=C/c3cccc4c3OCO4)nn2)cc1 [7c, (E)-4-(4-(((4-((benzo[d][1,3]dioxol-4-ylmethylene)amino)-5-benzyl-4H-1,2,4-triazol-3-yl)thio)methyl)-1H-1,2,3-triazol-1-yl)benzoic acid]
pIC50 (M. tuberculosis InhA): 10.13 | inhibition at 0.01 µM (M. tuberculosis InhA): 100% | melting point: 188 °C

O=C(O)c1ccc(-n2cc(CSc3nnc(Cc4ccccc4)n3/N=C/c3ccc(N4CCOCC4)cc3)nn2)cc1 [7e, (E)-4-(4-(((5-benzyl-4-((4-morpholinobenzylidene)amino)-4H-1,2,4-triazol-3-yl)thio)methyl)-1H-1,2,3-triazol-1-yl)benzoic acid]
pIC50 (M. tuberculosis InhA): 9.89 | inhibition at 0.01 µM (M. tuberculosis InhA): 100% | melting point: 192 °C

O=C(O)c1ccc(-n2cc(CSc3nnc(Cc4ccccc4)n3/N=C/c3cccs3)nn2)cc1 [7a, (E)-4-(4-(((5-benzyl-4-((thiophen-2-ylmethylene)amino)-4H-1,2,4-triazol-3-yl)thio)methyl)-1H-1,2,3-triazol-1-yl)benzoic acid]
pIC50 (M. tuberculosis InhA; [2]): 8.21 | melting point: 196 °C

Sc1nnc(Cc2ccccc2)n1/N=C/c1cccc2c1OCO2 [4b]
pIC50 (M. tuberculosis InhA; [2]): 8.04 | melting point: 164 °C

C#CCSc1nnc(Cc2ccccc2)n1/N=C/c1cccc2c1OCO2 [5b, (E)-1-(benzo[d][1,3]dioxol-4-yl)-N-(3-benzyl-5-(prop-2-yn-1-ylthio)-4H-1,2,4-triazol-4-yl)methanimine]
pIC50 (M. tuberculosis InhA; [2]): 9.18 | inhibition at 0.01 µM (M. tuberculosis InhA): 100% | melting point: 140 °C

C#CCSc1nnc(Cc2ccccc2)n1/N=C/c1ccc(N2CCOCC2)cc1 [5c]
pIC50 (M. tuberculosis InhA; [2]): 9.64 | inhibition at 0.01 µM (M. tuberculosis InhA): 100% | melting point: 236 °C

C#CCSc1nnc(Cc2ccccc2)n1/N=C/c1cccs1 [5a, (E)-N-(3-benzyl-5-(prop-2-yn-1-ylthio)-4H-1,2,4-triazol-4-yl)-1-(thiophen-2-yl)methanimine]
pIC50 (M. tuberculosis InhA; [2]): 8.25 | melting point: 98 °C

CC(=O)c1ccc(-n2cc(CSc3nnc(Cc4ccccc4)n3/N=C/c3cccc4c3OCO4)nn2)cc1 [7d]
inhibition at 0.01 µM (M. tuberculosis InhA): 100% | pIC50 (M. tuberculosis InhA; read-out: IC50, inhibitory effect against InhA, 70 nM InhA, 2 h pre-incubation, pH 6.8, 25 °C, 35 μM trans-2-decenoyl-CoA, 200 μM NADH): 9.74 | melting point: 196 °C

Sc1nnc(Cc2ccccc2)n1/N=C/c1cccs1 [4a, 5.-benzyl-4-((thiophen-2-ylmethylene)amino)-2,4-dihydro-3H-1,2,4-triazole-3-thione]
pIC50 (M. tuberculosis InhA; [2]): 7.27 | melting point: 184 to 186 °C

Cc1nc(C)n(CCCNc2ccc(C(=O)Nc3ccc(F)c(Oc4ccccc4)c3)cn2)n1 [Lead structure A]
pIC50 [1]: 6.04
